The numbers were not newly measured in article PMC6601333 (Biochemical and biophysical research communications, 2019), which cites them from elsewhere.

For the compound `CC(C)CN(C[C@@H](O)[C@H](Cc1ccccc1)NC(=O)O[C@H]1CCOC1)S(=O)(=O)c1ccc(N)cc1` [APV, amprenavir], the “inhibition of HIV-2 PR, fold worse than for HIV-1 PR” value with HIV-2 PR (relative to HIV-1 PR) is recorded as 19 fold.
For the compound `CC(C)CN(C[C@@H](O)[C@H](Cc1ccccc1)NC(=O)O[C@H]1CO[C@H]2OCC[C@H]21)S(=O)(=O)c1ccc(N)cc1` [DRV, darunavir], in the data set on wild type HIV-1 PR, the “inhibition of HIV-1 PR (in words)” value is given as “effective inhibitors”. For the same compound, the “inhibition of HIV-2 PR (in words)” value in the data set with HIV-2 PR was “effective inhibitors”.
Consider `CC(C)(C)NC(=O)[C@@H]1C[C@@H]2CCCC[C@@H]2CN1C[C@@H](O)[C@H](Cc1ccccc1)NC(=O)[C@H](CC(N)=O)NC(=O)c1ccc2ccccc2n1` [SQV, saquinavir], for which the “inhibition of HIV-1 PR (in words)” value in the data set with wild type HIV-1 PR is “effective inhibitors”. Also, the “inhibition of HIV-2 PR (in words)” value in the data set with HIV-2 PR is listed as “effective inhibitors”.
